Experiment [1] is described as follows: Example 8: case of hangover therapy, test subject A, capsule of aminolevulinic acid. The experiment is classed as in vivo, human. As to conditions: terrible hangover, one capsule comprising 100 mg. The procedure:
Test subject A who consumed Japanese sake similarly to Example 7 without ingesting any capsules developed a terrible hangover condition. Test subject A ingested one capsule comprising 100 mg of aminolevulinic acid. As a result, symptoms started to recover after 30 minutes had passed since administration, and they had completely recovered after 1.5 hours.

Experiment [2] is described as follows: Example 9: questionnaire total score of ten hangover symptoms with and without ALAs ingestion, fifteen test subjects. The experiment is classed as in vivo, human. As to conditions: for Total score After alcohol consumption (same day) / Total score Morning after alcohol consumption: ALAs ingested (10-150 mg total, differs per subject), sum of ten hangover symptom items each scored 0-4, one line per test subject 1-15. The procedure: The following tests were performed to more quantitatively measure that ALAs are effective for the prevention or therapy of a hangover.
In this experiment, aminolevulinic acid phosphate salt was employed as ALAs.
Each test subject, consumed alcohol in the evening for a total of two times in order to evaluate hangover symptoms in regards to each of (1) when ALAs was ingested and (2) when ALAs was not ingested. In the experiment with ALAs ingestion and the experiment without ALAs ingestion, the order for which of the experiments was performed first and the other of the experiments was performed, later was randomly selected for each test subject. Each experiment was performed with at least a few days apart.
Total amount of alcohol consumption varies by test subject. This is because a moderate amount for each test subject was consumed. Moreover, alcohol consumption was made so that the total amount of the second alcohol consumption was the same as the total amount of the first alcohol consumption (note that as exceptions, (1) the total amount of alcohol consumption when ALAs was ingested and (2) the total amount of alcohol consumption when ALAs was not ingested are not the same for test subjects 1, 2, and 12 in Table 5 below). In Table 5 below, the “total amount of alcohol consumption” indicates a value converted into the total amount of alcohol contained in beer or Japanese sake etc. consumed (in other words, in the case of a 500 ml canned beer, if the alcohol percentage is 5%, it is calculated as […]).
Moreover, for each test subject, the timing of ALAs ingestion (1) when ALAs was ingested was “at the start of alcohol consumption” and/or “after the end of alcohol consumption” as shown in Table 5 below. The ingestion of ALAs (aminolevulinic acid phosphate salt) was performed by selecting at least one from below:
(A) the capsule of Example 1 (contains 50 mg of ALAs),
(B) the capsule of Example 3 (contains 10 mg of ALAs),
(C) “Hanamitsu Drink™” (contains 5 or 10 mg of ALAs, a product generally marketed by the present applicants) for each test subject, ingested in the range of 10 mg-150 mg total.
(A) The body condition “after alcohol consumption on the day of alcohol consumption” (“after alcohol consumption (same day)” in Table 5) and (B) the body condition on “the morning after the day of alcohol consumption” (“morning after alcohol consumption” in Table 5) were quantified with the following scores. In other words, a five-step evaluation (0: no indication, 1: mild, 2: moderate, 3: severe, and 4: profound) was performed for each test subject in regards to the following ten items (a-j) which are hangover symptoms. Then, evaluation values (0-4) for each item were summed for each test subject. The results are described in Table 5 as the “total score” showing hangover symptoms.

[3] abbreviates: phosphate salt, 10 mg ALAs with 60 mL alcohol.
Where [4] appears, read: phosphate salt, 20 mg ALAs with 70 mL alcohol.
[5] abbreviates: phosphate salt, 50 mg ALAs with 14 mL alcohol.
Setting [6] is: phosphate salt, 50 mg ALAs with 25 mL alcohol.
The mark [7] stands for this setting: phosphate salt, 50 mg ALAs with 45 mL alcohol.
Where [8] appears, read: phosphate salt, 50 mg ALAs with 79 mL alcohol.
Setting [9] is: phosphate salt, 50 mg ALAs with 108 mL alcohol.
The mark [10] stands for this setting: phosphate salt, 100 mg ALAs with 50 mL alcohol.
The mark [11] stands for this setting: phosphate salt, 100 mg ALAs with 75 mL alcohol.
Where [12] appears, read: phosphate salt, 100 mg ALAs with 190 mL alcohol.
Where [13] appears, read: phosphate salt, 150 mg ALAs with 129 mL alcohol.

Where “and” joins values, the source holds several entries; their conditions need not be identical. Identical values can stand only once. Entries after “also recorded” stand apart in the source; their conditions may differ.

As for `NCC(=O)CCC(=O)O` [aminolevulinic acid, 5-aminolevulinic acid], in experiment [1], the “time after administration until hangover symptoms started to recover” value came to 30 min and the “time until complete recovery from hangover” value worked out at 1.5 h.
In the case of “aminolevulinic acid phosphate salt [ALAs]”, the “Total score After alcohol consumption (same day)” value in experiment [2] (setting [3]) was 9; in experiment [2] (setting [4]) it was 1; in experiment [2] (setting [5]) it was 0; in experiment [2] (setting [6]) it was 0 (2×) and 3; in experiment [2] (setting [7]), 0; in experiment [2] (setting [8]) it was 0. For the same compound, the “Total score After alcohol consumption (same day)” value in experiment [2] (setting [9]) was found to be 0; in experiment [2] (setting [10]) it was 1; in experiment [2] (setting [11]), 0; in experiment [2] (setting [12]) it was 9; in experiment [2] (setting [13]), 0. Moreover, the “Total score Morning after alcohol consumption” value is 2 in experiment [2] (setting [3]); 1 in experiment [2] (setting [4]); 0 in experiment [2] (setting [5]); 0 (2×) and 3 in experiment [2] (setting [6]); 0 in experiment [2] (setting [7]); 0 in experiment [2] (setting [8]). For the same compound, the “Total score Morning after alcohol consumption” value is 0 in experiment [2] (setting [9]); 1 in experiment [2] (setting [10]); 1 and 0 and 2 in experiment [2] (setting [11]); 7 in experiment [2] (setting [12]); 1 in experiment [2] (setting [13]). In addition, the “amount of alcohol consumption possible” value in experiment [2] (ALAs ingested at the start of alcohol consumption, test subjects 1 and 2) is listed as “Alcohol consumption at an amount more than usual was possible”. Moreover, the “hangover symptoms with ALAs ingestion compared to without, conclusions from Table 5” value in experiment [2] (subgroups of test subjects, phosphate salt) is “hangover symptoms were surprisingly mostly reduced; also recorded: Hangover symptoms were generally improved and a prophylactic effect of hangovers was seen; also recorded: no hangover symptoms manifested”.

The values are drawn from patent publication US10022345B2, “Agent for preventing and/or treating veisalgia” (SBI Pharmaceuticals Co., Ltd., priority 2011, dated 2018).
